Results: patent US11613526B2, “Thiophene derivatives” (priority 2018, dated 2023)

Key:
[1] = biological target: T1, interaction of the PAS B domains of HIF-2α and HIF-1β (Homo sapiens, UniProt Q99814); assay: Alphascreen protein protein interaction assay; format: biochemical
T1 construct: His6Gb1-TEV-GEFKGL-HIF2α (240-350aa)-G
Protocol: Alphascreen Protein Protein Interaction Assay:
For the assessment of functional disruption of the interaction of the PAS B domains of HIF-2α and HIF-1β an AlphaScreen assay was set-up. The assay was performed in 384 well light gray Perkin Elmer microtiter plates in a total volume of 7 μl. […] The detection of the protein protein interaction was performed by adding AlphaLISA® Anti-FLAG Acceptor beads (fc 20 μg/ml) and AlphaScreen® Nickel Chelate Donor beads (fc 9 μg/ml) (both Perkin Elmer) and the reaction was incubated for 240 min at 23° C. in the dark. If donor and acceptor beads get in close proximity to each other caused by interaction of HIF2alpha PAS B with HIF-1ß PAS B domain it results in a luminescence signal at 615 nm after excitation at 680 nm. The PPI disruption activity of a compound was calculated directly from the loss in Alphascreen signal. The AlphaScreen signal was measured with an Envision multimode reader (Perkin Elmer LAS Germany GmbH). The control value used was the inhibitor-free reaction. The pharmacological zero value used was determined in the absence of HIF-11. The inhibitory values (IC50) were calculated using Assay analyser from GeneData.

[2] = biological target: T2, HIF2a (240-350)-G (Homo sapiens, UniProt Q99814); assay: ITC; format: binding
T2 construct: The protein, HIF2a (240-350)-G, was prepared by recombinant overexpression; made in house
Protocol: ITC measurements were performed with a VP-ITC microcalorimeter from MicroCal/Malvern (UK). For all titration experiments the protein and the respective compounds were formulated in 30 mM HEPES buffer pH 7.5, 150 mM NaCl and 5 mM ß-mercaptoethanol. The protein, HIF2a (240-350)-G, was prepared by recombinant overexpression and multistep chromatography purification. Compounds were used from concentrated DMSO stock solutions. The final protein concentration in the injection syringe was 100 μM. Ligand stock solutions of 10 mM in DMSO were diluted to 10 μM concentrations with buffer and loaded into the sample cell. All buffers were adjusted to a final concentration of 1% (v/v) DMSO. Both, the titrate and titrant solutions were degassed prior to loading the calorimeter cell and injection syringe. […] The integrated heat data were fit with a one-site binding model to determine the apparent values for affinity, enthalpy and stoichiometry of binding.

[3] = test system: HIF2α-HIF1β activity in 786-O HRE-luc2P cells; assay: Cellular mechanistic assay: 786-O HRE-luc2P reporter assay; format: cell-based; details: Homo sapiens, 786-0, 48 h, read-out: HRE-luc2P reporter assay IC50
Protocol: This reporter assay was designed to monitor binding of the HIF2α-HIF1β complex to specific DNA fragment called hypoxia response element (HRE) in physiologically relevant cell line. […] HRE is present in promoters of various genes regulated by hypoxia inducible factors. […] As a result, this reporter assay allows monitoring of HIF2α-HIF1β activity by determining the activity of produced luciferase. Cell culture is performed in RPMI media supplemented with 10% FBS, Sodium Pyruvate, Penicillin/Streptomycin, Glutamine, 200 μg/ml Hygromycin Gold.
The assay was performed in 384 well white, opaque microtiterplate with transparent bottom (Greiner Bio-one, Frickenhausen). […] 50 μl of cell suspension (2000 cells) per well were dispensed in microtiter plates and incubated over night at 37° C. in a 5% CO2 incubator. Compounds were added with Labcyte Echo dispenser (fc 0.2% DMSO, 9 concentrations dilution raw starting at 10 μM). Plates were incubated for 48 h at 37° C. in a 5% CO2 incubator. After this 45 μl of pre-warmed ONE-Glo™ EX Reagent were added per well. Plates were placed on an orbital shaker at 1200 rpm for 3 minutes. Plates were sealed and luminescence was measured a Tecan Spark 20M microplate reader (end-point measurement with 0.1 second reading time). Values were normalized to DMSO ctrl and wells without cells (only medium ctrl). Decrease in luminescence directly correlates with inhibition of HIF2α activity. IC50 values and % effect values were calculated by GraphPad Prism.

T2 sequence (Q99814 240-350): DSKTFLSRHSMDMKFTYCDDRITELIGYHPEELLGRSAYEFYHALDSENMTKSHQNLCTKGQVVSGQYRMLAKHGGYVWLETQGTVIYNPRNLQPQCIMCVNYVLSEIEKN
T1 sequence (Q99814 240-350): as above

| SMILES | IC50 [1] | Kd [2] | IC50 [3] |
| --- | --- | --- | --- |
| CS(=O)(=O)c1sc(-c2ccccc2)c2c1[C@H](O)C(F)(F)C2 [Example 25a, (4S)-5,5-difluoro-3-methanesulfonyl-1-phenyl-4H,6H-cyclopenta[c]thiophen-4-ol] | > 1 µM | > 1 µM | – |
| Cc1cc(-c2sc(S(C)(=O)=O)c3c2CC(F)(F)[C@H]3O)n(C)n1 [Example 49a, (4S)-1-(1,3-dimethyl-1H-pyrazol-5-yl)-5,5-difluoro-3-methanesulfonyl-4H,5H,6H-cyclopenta[c]thiophen-4-ol] | > 1 µM | – | – |
| Cn1cc(-c2sc(S(C)(=O)=O)c3c2CC(F)(F)[C@H]3O)cn1 [Example 35a, (4S)-5,5-difluoro-3-methanesulfonyl-1-(1-methyl-1H-pyrazol-4-yl)-4H,5H,6H-cyclopenta[c]thiophen-4-ol] | > 1 µM | – | – |
| CS(=O)(=O)c1sc(-c2cncc(Cl)c2)c2c1[C@H](O)C(F)(F)CC2 [Example 56a, (4S)-1-(5-chloropyridin-3-yl)-5,5-difluoro-3-methanesulfonyl-4,5,6,7-tetrahydro-2-benzothiophen-4-ol] | 0.05 to 1 µM | – | > 1 µM |
| Cn1nc(C(F)(F)F)cc1-c1sc(S(C)(=O)=O)c2c1CC(F)(F)[C@H]2O [Example 48a, (4S)-5,5-difluoro-3-methanesulfonyl-1-[1-methyl-3-(trifluoromethyl)-1H-pyrazol-5-yl]-4H,5H,6H-cyclopenta[c]thiophen-4-ol] | > 1 µM | – | > 1 µM |
| CS(=O)(=O)c1sc(-c2cncc(C(F)(F)F)c2)c2c1[C@H](O)C(F)(F)CC2 [Example 62a, (4S)-5,5-difluoro-3-methanesulfonyl-1-[5-(trifluoromethyl)pyridin-3-yl]-4,5,6,7-tetrahydro-2-benzothiophen-4-ol] | 0.05 to 1 µM | – | > 1 µM |
| CS(=O)(=O)c1sc(-c2cc(F)nc(Cl)c2)c2c1[C@H](O)C(F)(F)CC2 [Example 63a, (4S)-1-(2-chloro-6-fluoropyridin-4-yl)-5,5-difluoro-3-methanesulfonyl-4,5,6,7-tetrahydro-2-benzothiophen-4-ol] | < 0.05 µM | 0.05 to 1 µM | > 1 µM |
| CS(=O)(=O)c1sc(-c2cnc(Cl)c(F)c2)c2c1[C@H](O)C(F)(F)CC2 [Example 61a, (4S)-1-(6-chloro-5-fluoropyridin-3-yl)-5,5-difluoro-3-methanesulfonyl-4,5,6,7-tetrahydro-2-benzothiophen-4-ol] | 0.05 to 1 µM | – | > 1 µM |
| CS(=O)(=O)c1sc(-c2cccc(F)c2)c2c1[C@H](O)C(F)(F)CC2 [Example 37a, (4S)-5,5-difluoro-1-(3-fluorophenyl)-3-methanesulfonyl-6,7-dihydro-4H-2-benzothiophen-4-ol] | > 1 µM | > 1 µM | > 1 µM |
| COc1ncc(-c2sc(S(C)(=O)=O)c3c2CCC(F)(F)[C@H]3O)cc1Cl [Example 65a, (4S)-1-(5-chloro-6-methoxypyridin-3-yl)-5,5-difluoro-3-methanesulfonyl-4,5,6,7-tetrahydro-2-benzothiophen-4-ol] | > 1 µM | – | – |
| Cn1nc(C#N)cc1-c1sc(S(C)(=O)=O)c2c1CCC(F)(F)[C@H]2O [Example 51a, 5-[(4S)-5,5-difluoro-4-hydroxy-3-methanesulfonyl-4,5,6,7-tetrahydro-2-benzothiophen-1-yl]-1-methyl-1H-pyrazole-3-carbonitrile] | > 1 µM | – | – |
| Cn1nccc1-c1sc(S(C)(=O)=O)c2c1CC(F)(F)[C@H]2O [Example 47a, (4S)-5,5-difluoro-3-methanesulfonyl-1-(1-methyl-1H-pyrazol-5-yl)-4H,5H,6H-cyclopenta[c]thiophen-4-ol] | > 1 µM | – | > 1 µM |
| Cn1cc(-c2sc(S(C)(=O)=O)c3c2CCC(F)(F)[C@H]3O)cn1 [Example 40a, (4S)-5,5-difluoro-3-methanesulfonyl-1-(1-methyl-1H-pyrazol-4-yl)-4,5,6,7-tetrahydro-2-benzothiophen-4-ol] | > 1 µM | – | – |
| Cc1nn(C)cc1-c1sc(S(C)(=O)=O)c2c1CCC(F)(F)[C@H]2O [Example 39a, (4S)-1-(1,3-dimethyl-1H-pyrazol-4-yI)-5,5-difluoro-3-methanesulfonyl-4,5,6,7-tetrahydro-2-benzothiophen-4-ol] | > 1 µM | – | – |
| Cn1nc(-c2sc(S(C)(=O)=O)c3c2CCC(F)(F)[C@H]3O)cc1C#N [Example 54a, 3-[(4S)-5,5-difluoro-4-hydroxy-3-methanesulfonyl-4,5,6,7-tetrahydro-2-benzothiophen-1-yl]-1-methyl-1H-pyrazole-5-carbonitrile] | > 1 µM | – | > 1 µM |
| Cn1nc(C(F)(F)F)cc1-c1sc(S(C)(=O)=O)c2c1CCC(F)(F)[C@H]2O [Example 46a, (4S)-5,5-difluoro-3-methanesulfonyl-1-[1-methyl-3-(trifluoromethyl)-1H-pyrazol-5-yl]-4,5,6,7-tetrahydro-2-benzothiophen-4-ol] | > 1 µM | – | > 1 µM |
| CS(=O)(=O)c1sc(-c2cccc(F)c2)c2c1[C@H](O)C(F)(F)C2 [Example 28a, (4S)-5,5-difluoro-1-(3-fluorophenyl)-3-methanesulfonyl-4H,6H-cyclopenta[c]thiophen-4-ol] | > 1 µM | > 1 µM | – |
| CS(=O)(=O)c1sc(-c2ccccc2)c2c1[C@H](O)CCC2 [Example 36a, (4R)-3-methanesulfonyl-1-phenyl-4,5,6,7-tetrahydro-2-benzothiophen-4-ol] | > 1 µM | – | > 1 µM |
| CS(=O)(=O)c1sc(-c2ccccc2F)c2c1[C@H](O)C(F)(F)C2 [Example 27a, (4S)-5,5-difluoro-1-(2-fluorophenyl)-3-methanesulfonyl-4H,6H-cyclopenta[c]thiophen-4-ol] | > 1 µM | > 1 µM | – |
| CS(=O)(=O)c1sc(-c2cncc(F)c2)c2c1[C@H](O)C(F)(F)CC2 [Example 58a, (4S)-5,5-difluoro-1-(5-fluoropyridin-3-yl)-3-methanesulfonyl-4,5,6,7-tetrahydro-2-benzothiophen-4-ol] | > 1 µM | – | – |
| CS(=O)(=O)c1sc(-c2cncc(C#N)c2)c2c1[C@H](O)C(F)(F)CC2 [Example 59a, 5-[(4S)-5,5-difluoro-4-hydroxy-3-methanesulfonyl-4,5,6,7-tetrahydro-2-benzothiophen-1-yl]pyridine-3-carbonitrile] | > 1 µM | – | – |
| Cc1cncc(-c2sc(S(C)(=O)=O)c3c2CCC(F)(F)[C@H]3O)c1 [Example 57a, (4S)-5,5-difluoro-3-methanesulfonyl-1-(5-methylpyridin-3-yl)-4,5,6,7-tetrahydro-2-benzothiophen-4-ol] | > 1 µM | – | – |
| Cc1cc(-c2sc(S(C)(=O)=O)c3c2CCC(F)(F)[C@H]3O)n(C)n1 [Example 50a, (4S)-1-(1,3-dimethyl-1H-pyrazol-5-yl)-5,5-difluoro-3-methanesulfonyl-4,5,6,7-tetrahydro-2-benzothiophen-4-ol] | > 1 µM | – | – |
